# Source: patent US9662319B2 (Mayo Foundation for Medical Education and Research, priority 2011, dated 2017)
# How the values were obtained:
# human MM cells lines = experiment: MTT assay, baseline cytotoxicity on a panel of human MM cell lines; assay type: cell-based; conditions: 11 tested MM cell lines, 1.6 μM to 50 μM, 72 hours, in vitro
# Method: (§1) The lentiviruses expressing NT or CRBN shRNAs were subcloned into a GFP containing construct and used to infect various myeloma cell lines as described elsewhere (Zhu et al., Blood, 117(14):3847-3857 (2011); Epublished Feb. 2, 2011). After a 48-hour infection period, efficiency was measured at 72 hours and 6 days post infection by FACScan analysis of GFP expression. Cell viability was measured by 3-(4,5-dimethylthiazol)-2,5-diphenyl tetrazolium (MTT) dye absorbance according to the manufacturer's instructions (Boehringer Mannheim, Mannheim, Germany). Cells were also harvested at 72 hours post infection for real-time PCR analysis of CRBN levels in control and CRBN shRNA expressing cells. At three weeks post infection, GFP-positive cells were sorted and expanded. Real-time PCR was performed to measure CRBN levels in sorted cells.
# In some experiments, cells were incubated with various doses of lenalidomide, dexamethasone, melphalan, or bortezomib. Plates were incubated for 72 hours to six days. Cell viability was determined using an MTT assay. Each experimental condition was performed in triplicate and repeated at least once.
# A MTT assay was performed on a panel of genetically heterogeneous human MM cells lines in vitro (FIG. 1). […] The same dose of thalidomide, however, had no effect on MM cell growth.
# [1] = system: CRBN depleted myeloma cell lines; experiment: MTT cell viability of CRBN shRNA knock-down myeloma cell lines versus NT control cells in presence of anti-myeloma drugs; assay type: cell-based, human; conditions: sorted GFP positive myeloma cell lines with CRBN knock-down
# Method: as §1
# Plates were incubated for 72 hours to six days. Cell viability was determined using an MTT assay. Each experimental condition was performed in triplicate and repeated at least once.
# Proliferation of those CRBN depleted but surviving MM cells were then tested in the absence or presence of different anti-myeloma drugs.
SMILES,growth of MM cell lines (MTT) (human MM cells lines),sensitivity of CRBN knock-down cells compared with NT control cells [1]
Nc1cccc2c1CN(C1CCC(=O)NC1=O)C2=O (stereo not shown) [Lenalidomide],inhibited growth of 8 of 11 tested MM cell lines,
Nc1cccc2c1C(=O)N(C1CCC(=O)NC1=O)C2=O (stereo not shown) [pomalidomide],,resistance
CC(C)C[C@H](NC(=O)[C@H](Cc1ccccc1)NC(=O)c1cnccn1)B(O)O [Bortezomib],,more sensitive
O=C1CCC(N2C(=O)c3ccccc3C2=O)C(=O)N1 (stereo not shown) [thalidomide],no effect,
